Like-named read-outs stand apart in the source and are kept apart here. Marks after values point to notes of the source that are not given here.
Columns and labels:
[1] = tested on: phospho-S6 ribosomal protein (Ser235/236); assay: PD Western blot of HCT116 tumour lysates: S6 phosphorylation; type: in vivo, mice; conditions: 0.25–24 hours after single p.o. dose; 1 mg/kg PD 0325901, 100 mg/kg GDC-0941 or combination (combination compared to single agent PI3K inhibitor)
[2] = tested on: HCT116 human tumour xenografts; assay: Anti-tumour activity (time to RTV3/RTV4) in HCT116 human tumour xenografts; type: in vivo, mice; conditions: 1 mg/kg PD 0325901, 100 mg/kg GDC-0941, alone or in combination, p.o. once daily for 14 days
Experimental: (§1) Animal studies were all carried out using female athymic CD1 nude mice (Charles River, Kent, UK), implanted with HCT116 or HT29 xenografts (1×10^7 cells in 50 µl media injected subcutaneously into the right flank), maintained and handled in isolators under specific pathogen-free conditions.

[3] = parameters: method as in PMID 18754654, PMID 21838594; conditions: in mice; cited from earlier work
[4] = tested on: phospho-Akt (Ser473); assay: PD Western blot of HCT116 tumour lysates: AKT phosphorylation; type: in vivo, mice; conditions: 0.25–24 hours after single p.o. dose; 1 mg/kg PD 0325901, 100 mg/kg GDC-0941 or combination (combination compared to single agent PI3K inhibitor)
Experimental: (§2) Blood was collected into heparinised tubes, and plasma was separated and stored at −20°C until analysed. Tumours were removed, snap frozen in liquid nitrogen and stored at −80°C prior to PK and PD analyses, as described below.
For PD analyses, tumours (2 to 4∼2.5 mm^3 pieces) were disaggregated in 1 ml PhosphoSafe™ extraction reagent (Merck Chemicals Ltd, Nottingham, Nottinghamshire, UK) containing a protease inhibitor cocktail (Pierce, Thermo Scientific, Rockford, Illinois, USA) at the manufacturer's recommended dilution using a Medimachine™ (BD Biosciences, Oxford, UK), centrifuged, and the supernatant removed and analysed by Western blotting. […] Antibody binding was detected by incubation with a HRP-conjugated goat anti-rabbit polyclonal antibody (Dako, Glastrop, Denmark).

[5] = tested on: phospho-p44/42 MAPK (Thr202/Tyr204) (ERK1/2); assay: PD Western blot of HCT116 tumour lysates: ERK1/2 phosphorylation; type: in vivo, mice
Experimental: as §2
For PD analyses, tumours (2 to 4∼2.5 mm^3 pieces) were disaggregated in 1 ml PhosphoSafe™ extraction reagent (Merck Chemicals Ltd, Nottingham, Nottinghamshire, UK) containing a protease inhibitor cocktail (Pierce, Thermo Scientific, Rockford, Illinois, USA) at the manufacturer's recommended dilution using a Medimachine™ (BD Biosciences, Oxford, UK), centrifuged, and the supernatant removed and analysed by Western blotting. Proteins were resolved on Novex® 4–12% (w/w) Tris-glycine gels (Invitrogen Ltd, Renfrew, Paisley, UK) and electrotransferred onto Hybond C nitrocellulose membrane (GE Healthcare Life Sciences, Hatfield, Hertfordshire, UK). Membranes were incubated with phospho-4EBP1 (Thr37/46) (#2855), phospho-p44/42 MAPK (Thr202/Tyr204) (#4370), phospho-Akt (Ser473) (#4060) or phospho-S6 ribosomal protein (Ser235/236) (#4858) monoclonal antibodies obtained from Cell Signalling Technology (New England BioLabs (UK) Ltd, Hitchin, Hertfordshire, UK). Antibody binding was detected by incubation with a HRP-conjugated goat anti-rabbit polyclonal antibody (Dako, Glastrop, Denmark). Blots were developed using Pierce ECL (enhanced chemiluminescence) western blotting substrate (Thermo Scientific, Rockford, Illinois, USA), or SuperSignal® West Dura extended duration substrate (Thermo Scientific, Rockford, Illinois, USA), and Kodak X-ray film (Genetic Research Instrumentation Ltd, Braintree, Essex, UK) on a MediPhot 937 film developer (Colenta, Weiner Neustadt, Austria), then digitally scanned.

[6] = tested on: HCT116 human tumour xenografts; assay: [18F]-FLT PET tumour uptake in HCT116 xenografts; type: in vivo, mice; conditions: 1 mg/kg PD 0325901, 100 mg/kg GDC-0941, alone or in combination, p.o. once daily for 2 days
Experimental: Before treatment and after 2 days of treatment as described above, mice bearing HCT116 human tumour xenografts (7–9 mice/group) were anaesthetised, cannulated via their tail vein and placed in the prone position on a custom-made heated bed, which held three mice at once, within a MOSAIC PET scanner (Philips, Eindhoven, NL). [^18F]-FLT was obtained from PETNET (PETNET, Nottingham, UK), and radioactivity levels were measured using a Capintec well counter (Capintec, NJ, USA). Approximately 10 MBq of [^18F]-FLT was administered intravenously and a 1 hour dynamic PET scan was performed, consisting of ten 1 minute, six 5 minute and two 10 minute time frames. Mice were recovered after scanning and continued to receive treatment for the remainder of the study. Data were analysed using Imalytics software (Philips, Aachen, Germany); a 3D region of interest was drawn around the tumour and the standardised uptake value (SUV) was calculated by dividing the tissue concentration (MBq/ml) by the injected dose (MBq)/g body weight. Mean SUV values were then plotted against time, and the area under the curve (AUC) and the percentage change in the area under the curve relative to the baseline scan was calculated.

[7] = tested on: phospho-4EBP1 (Thr37/46); assay: PD Western blot of HCT116 tumour lysates: 4EBP1 phosphorylation; type: in vivo, mice; conditions: 0.25–24 hours after single p.o. dose; 1 mg/kg PD 0325901, 100 mg/kg GDC-0941 or combination (combination compared to single agent PI3K inhibitor)
[8] = Single dose PK: plasma and tumour tissue drug concentrations by HPLC in HCT116 xenograft-bearing mice; type: in vivo; conditions: for AUC: po; for AUC / GDC-0941 AUC Tumour / PD 0325901 AUC Tumour: over 24 hours, mean ± SD
Experimental: as §2
For PK analyses, drug was extracted from 60 µl aliquots of samples by protein precipitation with 9 volumes of acetonitrile (MeCN). Samples were centrifuged at 3000g for 5 minutes at 4°C, and 500 µl of the supernatant evaporated to dryness under nitrogen gas at 30°C using a Zymark Evaporator (Caliper Life Sciences Limited, Cheshire, UK). Samples were reconstituted in 100 µl HPLC mobile phase consisting of 40% acetonitrile and 60% (v/v) 0.1% formic acid pH 4.0 (v/v), and 50 µl of the supernatant applied to a 10 cm Xterra Waters 186000436 C18 3.5 µm column (Waters, Hertfordshire, UK) fitted with an in line filter. Compounds were eluted with the above mobile phase at 1 ml/min using a Waters Millennium Chromatography system (Waters, Hertfordshire, UK). Analytes were detected by UV absorbance at 275 and 315 nm, at retention times of 6.8–7.3 and 3.9–4.3 minutes for PD 0325901 and GDC-0941, respectively. For analysis of drug in tumour tissue, tumours were homogenised in 3 volumes of PBS (w/v) and 50 µl aliquots extracted with 9 volumes of MeCN, and centrifuged, evaporated and analysed as described above.

[9] = tested on: HT29 human tumour xenografts; assay: Anti-tumour activity (time to RTV3/RTV4) in HT29 human tumour xenografts; type: in vivo, mice; conditions: 1 mg/kg PD 0325901, 100 mg/kg GDC-0941, alone or in combination, p.o. once daily for 14 days
Experimental: as §1

[10] = tested on: HCT116 cells; parameters: method as in PMID 22415236; conditions: previously determined; read-out: in vitro GI50; cited from earlier work
[11] = rat, in vivo, 100 mg/kg; cited from earlier work
[12] = parameters: method as in PMID 20332327; conditions: single agent; such as retinal vein occlusion; cited from earlier work
[13] = cited from earlier work
[14] = single p.o. dose 10 mg/kg PD 0325901+10 mg/kg GDC-0941

CS(=O)(=O)N1CCN(Cc2cc3nc(-c4cccc5[nH]ncc45)nc(N4CCOCC4)c3s2)CC1 [GDC-0941, 2-(1H-Indazol-4-yl)-6-(4-methanesulfonyl-piperazin-1-ylmethyl)-4-morpholin-4-yl-thieno[3,2-d]pyrimidine]
phosphorylation of S6 in tumour [1]: reduction
Time to RTV3, Mean ± SD [2]: 15 ± 4 days
Time to RTV3, Median ± IR [2]: 16 ± 5 days
Time to RTV4, Mean ± SD [2]: 19 ± 5 days
Time to RTV4, Median ± IR [2]: 18 ± 4 days
oral bioavailability [3]: 78%
phosphorylation of AKT in tumour [4]: reduction
phosphorylation of ERK1/2 in tumour ([5]; 0.25–24 hours after single p.o. dose, 100 mg/kg GDC-0941 alone or with 1 mg/kg PD 0325901 (combination compared to single agent MEK inhibitor)): reduction
decrease in tumour [18F]-FLT uptake (SUV AUC) after 2 days versus baseline [6]: no significant difference
phosphorylation of 4EBP1 in tumour [7]: reduction
increase in plasma AUC with 10-fold increment in dose ([8]; GDC-0941 100 versus 10 mg/kg): 7 fold
increase in tumour AUC following a 10-fold increase in dose ([8]; GDC-0941 100 versus 10 mg/kg): 15 fold
AUC ([8]; mouse, plasma, 10 mg/kg, single p.o. dose 10 mg/kg GDC-0941 alone, read-out: GDC-0941 AUC Plasma (converted)): 5.4 µM·h
AUC ([8]; mouse, plasma, 10 mg/kg, single p.o. dose 10 mg/kg PD 0325901+10 mg/kg GDC-0941, read-out: GDC-0941 AUC Plasma (converted)): 6.33 µM·h
AUC ([8]; mouse, plasma, 100 mg/kg, single p.o. dose 100 mg/kg GDC-0941 alone, read-out: GDC-0941 AUC Plasma (converted)): 39.4 µM·h
AUC ([8]; mouse, plasma, single p.o. dose 1 mg/kg PD 0325901+10 mg/kg GDC-0941, read-out: GDC-0941 AUC Plasma (converted)): 6.55 µM·h
AUC ([8]; mouse, plasma, single p.o. dose 1 mg/kg PD 0325901+100 mg/kg GDC-0941, read-out: GDC-0941 AUC Plasma (converted)): 22.6 µM·h
AUC ([8]; mouse, plasma, single p.o. dose 10 mg/kg PD 0325901+100 mg/kg GDC-0941, read-out: GDC-0941 AUC Plasma (converted)): 58.8 µM·h
GDC-0941 AUC Tumour ([8]; single p.o. dose 1 mg/kg PD 0325901+10 mg/kg GDC-0941): 396±144^j µM.min
GDC-0941 AUC Tumour ([8]; single p.o. dose 1 mg/kg PD 0325901+100 mg/kg GDC-0941): 3196±183^h µM.min
GDC-0941 AUC Tumour ([8]; single p.o. dose 10 mg/kg GDC-0941 alone): 364±130^g µM.min
GDC-0941 AUC Tumour [8, 14]: 124±51^g,j µM.min
GDC-0941 AUC Tumour ([8]; single p.o. dose 10 mg/kg PD 0325901+100 mg/kg GDC-0941): 2649±861^i µM.min
GDC-0941 AUC Tumour ([8]; single p.o. dose 100 mg/kg GDC-0941 alone): 5422±962^h,i µM.min
Time to RTV3, Mean ± SD [9]: 11 ± 9 days
Time to RTV3, Median ± IR [9]: 10 ± 6 days
Time to RTV4, Mean ± SD [9]: 13 ± 9 days
Time to RTV4, Median ± IR [9]: 10 ± 5 days
GI50 [10]: 1080 nM

O=C(NOC[C@H](O)CO)c1ccc(F)c(F)c1Nc1ccc(I)cc1F [PD 0325901]
toxicity of oral and i.v. doses [11]: non-toxic
phosphorylation of S6 in tumour [1]: no marked effect
toxicity in clinical trials [12]: ocular and neurological toxicity
Time to RTV3, Mean ± SD [2]: 19 ± 7 days
Time to RTV3, Median ± IR [2]: 18 ± 12 days
Time to RTV4, Mean ± SD [2]: 23 ± 8 days
Time to RTV4, Median ± IR [2]: 21 ± 11 days
phosphorylation of AKT in tumour [4]: no marked effect
maximum tolerated dose [13]: 25 mg/kg
phosphorylation of ERK1/2 in tumour ([5]; 3 and 6 hours after single p.o. dose of 1 mg/kg PD 0325901): completely ablate
phosphorylation of ERK1/2 in tumour ([5]; 1 hour after single p.o. dose of 1 mg/kg PD 0325901): reduce
decrease in tumour [18F]-FLT uptake (SUV AUC) after 2 days versus baseline [6]: no significant difference
phosphorylation of 4EBP1 in tumour [7]: no marked effect
increase in plasma AUC of PD 0325901 following concomitant dosing with GDC-0941 ([8]; 1 or 10 mg/kg PD 0325901 alone versus with GDC-0941): 2–3 fold
increase in plasma AUC with 10-fold increment in dose ([8]; PD 0325901 10 versus 1 mg/kg): 15 fold
tumour tissue level (undetectable, limit of detection) ([8]; all time points after 1 mg/kg PD 0325901, per g of tumour material): < 0.4 nmol/g
concentration at 24 h ([8]; mouse, plasma, oral, at 24 hours after 1 mg/kg PD 0325901, read-out: plasma level (undetectable, limit of detection)): < 100 nM
AUC ([8]; mouse, plasma, 1 mg/kg, single p.o. dose 1 mg/kg PD 0325901 alone, read-out: PD 0325901 AUC Plasma (converted)): 1.38 µM·h
AUC ([8]; mouse, plasma, 10 mg/kg, single p.o. dose 10 mg/kg PD 0325901+10 mg/kg GDC-0941, read-out: PD 0325901 AUC Plasma (converted)): 40 µM·h
AUC ([8]; mouse, plasma, 10 mg/kg, single p.o. dose 10 mg/kg PD 0325901 alone, read-out: PD 0325901 AUC Plasma (converted)): 21.6 µM·h
AUC ([8]; mouse, plasma, single p.o. dose 1 mg/kg PD 0325901+10 mg/kg GDC-0941, read-out: PD 0325901 AUC Plasma (converted)): 2.73 µM·h
AUC ([8]; mouse, plasma, single p.o. dose 1 mg/kg PD 0325901+100 mg/kg GDC-0941, read-out: PD 0325901 AUC Plasma (converted)): 3.15 µM·h
AUC ([8]; mouse, plasma, single p.o. dose 10 mg/kg PD 0325901+100 mg/kg GDC-0941, read-out: PD 0325901 AUC Plasma (converted)): 54.1 µM·h
PD 0325901 AUC Tumour [8, 14]: 399±72^d,f µM.min
PD 0325901 AUC Tumour ([8]; single p.o. dose 10 mg/kg PD 0325901 alone): 1082±232^d,e µM.min
Time to RTV3, Mean ± SD [9]: 10 ± 4 days
Time to RTV3, Median ± IR [9]: 10 ± 4 days
Time to RTV4, Mean ± SD [9]: 11 ± 4 days
Time to RTV4, Median ± IR [9]: 11 ± 3 days
GI50 [10]: 21 nM

— paper PMC3858267, “The Enhanced In Vivo Activity of the Combination of a MEK and a PI3K Inhibitor Correlates with [^18F]-FLT PET in Human Colorectal Cancer Xenograft Tumour-Bearing Mice” (PLoS ONE, 2013)
